Data from the NIST ThermoML archive (doi:10.1016/j.fluid.2009.02.001).
Values joined by “and” are separate entries in the source; they are usually repeats but may differ in a detail not shown here. Identical values can stand only once.

Assays:
[1] = for vapor or sublimation pressure: Liquid; for Normal melting temperature: Crystal, DTA
[2] = Molar enthalpy of transition or fusion; settings: Crystal; DSC

CC(=O)Nc1ccc(Br)cc1 [N-(4-bromophenyl)acetamide]
vapor or sublimation pressure, [1]
Settings | Isothermal thermogravimetry | Nonisothermal thermogravimetry
444.2 K | – | 0.304 kPa
446.2 K | 0.384 kPa and 0.382 kPa | –
446.3 K | 0.353 kPa | –
446.4 K | – | 0.366 kPa
447.1 K | 0.381 kPa | –
447.7 K | 0.394 kPa | –
448.2 K | 0.422 kPa | –
448.4 K | – | 0.398 kPa
449.4 K | 0.415 kPa | –
449.9 K | 0.443 kPa | –
450.2 K | 0.453 kPa | 0.443 kPa
451.3 K | 0.447 kPa | –
452.1 K | 0.489 kPa | –
452.2 K | 0.496 kPa | –
452.3 K | – | 0.579 kPa
453.4 K | 0.528 kPa | –
453.6 K | 0.494 kPa | –
454.2 K | 0.539 kPa | –
454.4 K | – | 0.621 kPa
455.3 K | 0.54 kPa | –
455.9 K | 0.584 kPa | –
456.3 K | 0.606 kPa | –
456.4 K | – | 0.611 kPa
457.6 K | 0.605 kPa | –
457.8 K | 0.634 kPa | –
458.2 K | 0.65 kPa | –
458.3 K | – | 0.712 kPa
459.3 K | 0.67 kPa | –
459.5 K | 0.693 kPa | –
460.2 K | 0.732 kPa | –
460.3 K | – | 0.793 kPa
461.5 K | 0.724 kPa | –
462 K | 0.777 kPa | –
462.2 K | 0.793 kPa | 0.882 kPa
463.5 K | 0.793 kPa | –
463.6 K | 0.84 kPa | –
464.2 K | 0.862 kPa | –
464.3 K | – | 0.953 kPa
465.2 K | 0.855 kPa | –
465.9 K | 0.911 kPa | –
466.1 K | 0.943 kPa | –
466.2 K | – | 0.998 kPa
467.1 K | 0.927 kPa | –
468.2 K | 1.011 kPa | –
468.3 K | 1.006 kPa | 1.147 kPa
469.2 K | 1.005 kPa | –
470.2 K | 1.098 kPa and 1.075 kPa | –
470.3 K | – | 1.074 kPa
471.1 K | 1.086 kPa | –
472.1 K | 1.208 kPa | –
472.2 K | – | 1.398 kPa
472.4 K | 1.175 kPa | –
473.2 K | 1.17 kPa | –
474.1 K | 1.285 kPa | –
474.3 K | – | 1.482 kPa
475.3 K | 1.239 kPa | –
476.2 K | 1.381 kPa | 1.497 kPa
478.3 K | – | 1.779 kPa
480.2 K | – | 1.749 kPa
482.3 K | – | 1.937 kPa
484.3 K | – | 2.151 kPa
486.2 K | – | 2.296 kPa
488.3 K | – | 2.466 kPa
490.2 K | – | 2.741 kPa
492.2 K | – | 2.83 kPa
494.3 K | – | 3.134 kPa
496.2 K | – | 3.347 kPa
498.3 K | – | 3.604 kPa
500.3 K | – | 3.812 kPa
502.2 K | – | 4.149 kPa
504.3 K | – | 4.419 kPa
506.2 K | – | 4.593 kPa
508.2 K | – | 4.944 kPa
510.2 K | – | 5.307 kPa
512.2 K | – | 5.584 kPa
514.4 K | – | 5.847 kPa
516.2 K | – | 6.243 kPa

Settings | Molar enthalpy of transition or fusion [kcal/mol]
[2] | 6.21

CCOc1ccc(NC(C)=O)cc1 [N-(4-ethoxyphenyl)ethanamide]
vapor or sublimation pressure, [1]
Settings | Isothermal thermogravimetry | Nonisothermal thermogravimetry
418.2 K | – | 0.088 kPa
420.2 K | – | 0.087 kPa
422.2 K | – | 0.102 kPa
424.3 K | – | 0.106 kPa
426.2 K | – | 0.146 kPa
428.2 K | – | 0.146 kPa
430.3 K | – | 0.162 kPa
432.3 K | – | 0.171 kPa
434.3 K | – | 0.199 kPa
438.2 K | – | 0.247 kPa
440.2 K | – | 0.259 kPa
442.2 K | – | 0.309 kPa
444.2 K | – | 0.329 kPa
446.2 K | – | 0.401 kPa
448.2 K | – | 0.396 kPa
450.2 K | – | 0.452 kPa
452.2 K | – | 0.479 kPa
454.2 K | – | 0.538 kPa
456.3 K | – | 0.589 kPa
458.2 K | – | 0.643 kPa
460.2 K | – | 0.707 kPa
460.3 K | 0.821 kPa | –
461.1 K | 0.829 kPa | –
461.9 K | 0.815 kPa | –
462.2 K | 0.899 kPa | 0.785 kPa
463.3 K | 0.958 kPa | –
464.1 K | 0.935 kPa | –
464.3 K | 0.96 kPa | 0.84 kPa
465.5 K | 1.054 kPa | –
466.2 K | 1.028 kPa and 1.087 kPa | –
466.3 K | – | 0.936 kPa
467.4 K | 1.116 kPa | –
468.1 K | 1.149 kPa | –
468.2 K | – | 1.057 kPa
468.3 K | 1.165 kPa | –
469.3 K | 1.242 kPa | –
470 K | 1.259 kPa | –
470.2 K | – | 1.11 kPa
470.3 K | 1.273 kPa | –
471 K | 1.26 kPa | –
471.8 K | 1.327 kPa | –
472.2 K | 1.381 kPa | 1.192 kPa
473.3 K | 1.377 kPa | –
474 K | 1.484 kPa | –
474.2 K | – | 1.324 kPa
474.3 K | 1.551 kPa | –
475.4 K | 1.567 kPa | –
476.1 K | 1.571 kPa | –
476.2 K | 1.666 kPa | 1.4 kPa
477.6 K | 1.691 kPa | –
478.3 K | 1.709 kPa and 1.766 kPa | 1.559 kPa
479.1 K | 1.789 kPa | –
479.8 K | 1.808 kPa | –
480.2 K | 1.915 kPa | 1.679 kPa
481.2 K | 2.014 kPa | –
482 K | 2.037 kPa | –
482.3 K | 2.099 kPa | 1.802 kPa
483.3 K | 2.204 kPa | –
484.1 K | 2.228 kPa | –
484.3 K | 2.276 kPa | 1.945 kPa
485.3 K | 2.4 kPa | –
486 K | 2.495 kPa | –
486.2 K | 2.488 kPa | 2.088 kPa
487.1 K | 2.633 kPa | –
487.8 K | 2.702 kPa | –
488.2 K | – | 2.229 kPa
488.3 K | 2.686 kPa | –
489 K | 2.881 kPa | –
489.8 K | 2.981 kPa | –
490.2 K | 2.941 kPa | –
490.3 K | – | 2.41 kPa
491.1 K | 3.159 kPa | –
492.3 K | – | 2.535 kPa
494.3 K | – | 2.717 kPa
496.2 K | – | 2.889 kPa
498.2 K | – | 3.001 kPa
500.3 K | – | 3.29 kPa
502.3 K | – | 3.213 kPa

Settings | Molar enthalpy of transition or fusion [kcal/mol] | Normal melting temperature [°C]
[1] | – | 136.5
[2] | 7.17 | –

CC(=O)Nc1ccc(O)cc1 [N-acetyl-p-aminophenol]
vapor or sublimation pressure [kPa], [1]
Settings | Isothermal thermogravimetry | Nonisothermal thermogravimetry
477.3 K | 0.194 | 0.197
478.8 K | 0.1996 | –
479.3 K | 0.206 | 0.204
480 K | 0.225 | –
480.8 K | 0.2307 | –
481.4 K | 0.249 | 0.25
482 K | 0.2601 | –
482.9 K | 0.2539 | –
483.2 K | 0.276 | 0.259
483.8 K | 0.2861 | –
484.7 K | 0.2838 | –
485.2 K | 0.303 | –
485.9 K | 0.3199 | –
486.7 K | 0.3264 | –
487.3 K | 0.336 | 0.341
487.9 K | 0.3679 | –
488.8 K | 0.3624 | –
489.3 K | 0.365 | 0.315
490 K | 0.3891 | –
490.8 K | 0.3978 | –
491.2 K | 0.409 | 0.468
491.8 K | 0.437 | –
492.7 K | 0.449 | –
493.3 K | 0.44 | 0.447
493.9 K | 0.482 | –
494.8 K | 0.4882 | –
495.4 K | 0.492 | 0.504
496 K | 0.524 | –
496.9 K | 0.5169 | –
497.2 K | 0.554 | –
497.9 K | 0.5547 | –
498.7 K | 0.5818 | –
499.3 K | 0.61 | 0.669
499.9 K | 0.6246 | –
500.8 K | 0.6364 | –
501.4 K | 0.677 | –
502 K | 0.6832 | –
502.9 K | 0.7129 | –
503.2 K | 0.733 | 0.729
503.4 K | – | 0.838
503.8 K | 0.765 | –
504.7 K | 0.7889 | –
505.2 K | 0.815 | 0.861
505.8 K | 0.8468 | –
506.7 K | 0.8517 | –
507.2 K | 0.888 | 0.945
507.9 K | 0.9142 | –
508.7 K | 0.933 | –
509.3 K | – | 1.037
511.3 K | – | 1.207
513.4 K | – | 1.178
515.4 K | – | 1.41
517.2 K | – | 1.544
519.2 K | – | 1.696
521.3 K | – | 1.757
523.2 K | – | 2.012
525.3 K | – | 2.197
527.3 K | – | 2.32
529.2 K | – | 2.607
531.2 K | – | 2.823
533.3 K | – | 3.064
535.4 K | – | 3.295
537.2 K | – | 3.552
539.3 K | – | 4.01
541.3 K | – | 4.144
543.3 K | – | 4.653
545.4 K | – | 5.059
547.4 K | – | 5.373
549.2 K | – | 5.759
551.2 K | – | 6.208
553.2 K | – | 6.719
557.3 K | – | 7.824
559.4 K | – | 8.304
561.2 K | – | 8.944

Settings | Molar enthalpy of transition or fusion [kcal/mol] | Normal melting temperature [°C]
[1] | – | 172.5
[2] | 6.45 | –
